Assay results taken from patent US9982237B2, “Compositions and methods for reprograming non-pluripotent cells into pluripotent stem cells” (Hong Guan Ltd., priority 2013, dated 2018).

What was measured:
Assay type in all cases: cell-based, mouse
MEFs from OG mice [1] = experiment: Screen for small molecules that facilitate late reprogramming (DOX-inducible Oct4 plus VC6T)
Method: To identify small molecules that facilitate late reprogramming, a doxycycline (DOX)-inducible Oct4 expression screening system was used (Li, et al., Cell Res. 21:196-204 (2011)).
MEFs from OG mice were plated as described above and infected with Fu-tet-hOct4 and FUdeltaGW-rtTA lentiviruses. The induction protocol was carried out as described above.
After infection, the culture medium was replaced with LIF-free ESC culture medium containing VC6T (VPA, CHIR99021, 616452, Tranylcypromine) plus DOX (1 μg/ml). Alternatively, MEFs harboring DOX-inducible Oct4 from Tet-On POU5F1 mouse strain B6; 129-Gt(ROSA)26Sor^tm1(rTA*M2)Jae COl1a1^tm2(tetO-Pou5f1)Jae/J were used in this screen (Li, et al., Cell Res., 21:196-204 (2011)). These two DOX-inducible systems were only used in this screen, but not in complete chemical reprogramming. Individual chemicals from small-molecule libraries were added to each well. Small molecules were added at different culture time points. 5-aza-C (5-Azacytidine) and DZNep were added from day 8. The medium and chemicals were changed every 4 days; DOX was added only for the first 4-8 days. Chemical treatments were continued for 16-24 days or until GFP-positive colonies appeared. Primary hits were selected for further confirmation and optimization. CiPSC colonies were counted on day 44. […]

cAMP level in MEF = experiment: Intracellular cAMP quantification (Direct cAMP ELISA); details: FSK 10 μM, versus DMSO control
Method: (§1) cAMP was quantified using the Direct cAMP ELISA Kit (Enzo) according to the manufacturer's protocol. For SAM and SAH quantification, cultured cells (1,000,000 cells) were trypsinized and homogenized by ultrasonication in 200 μl PBS. Then 40 μl of 400 mg/ml TCA was added. Cell extracts were incubated on ice for 30 min. After centrifugation at 4° C. (13,000 rpm, 15 min), the supernatants were filtered through a 0.22 μm filter and analyzed by high-performance liquid chromatography (HPLC, Shimadzu) with HILIC columns (Waters).
The effect of inhibiting adenylate cyclase on the number of colonies generated by VC6TFZ was tested. […] The effect of replacing FSK with the cAMP analog (DBcAMP), alone or in combination with phosphodiesterase inhibitors, IBMX, or the phosphodiesterase inhibitor, rolipram and IBMX, on cell reprogramming was also tested. Both DBcAMP and IBMX were used at 50 μM in the combination treatment.

[2] = tested on: pluripotency-related genes; experiment: Gene expression during chemical reprogramming (real-time PCR, RNA-seq); details: for activation of endogenous expression of Sall4 and Sox2: withdrawal from VC6TF, after 12 days
MEFs from OG mice [3] = experiment: Screen for chemical substitutes of Oct4 in OG-MEFs infected with Sox2, Klf4 and c-Myc; details: OG-MEFs with viral expression of Sox2, Klf4 and c-Myc
Method: To identify chemical substitutes of Oct4, MEFs from OG mice were plated at a density of 20,000 cells per well of a 12-well plate and infected with lentiviruses encoding Sox2, Klf4 and c-Myc. After infection, the medium was replaced with LIF-free ESC culture medium. Individual chemicals from small-molecule libraries were added to each well. The medium and chemicals were changed every 4 days. Chemical treatments were continued for 14-20 days or until GFP-positive colonies appeared. Primary hits were selected for further confirmation and optimization.
Small molecules that enable reprogramming in the absence of Oct4 were searched using Oct4 promoter-driven green fluorescent protein (GFP) expression (OG) mouse embryonic fibroblasts (MEFs), with viral expression of Sox2, Klf4, and c-Myc.

MEFs = experiment: CiPSC induction by small-molecule combinations, primary CiPSC colonies counted; details: for replacement of DZNep in CiPSC generation: in combination with VC6TF
Method: The initial cells (MEFs, MNFs, MAFs or ADSCs) were seeded at a density of 50,000 cells per well of a 6-well plate or 300,000 cells per 100 mm dish. On the next day (day 0), the original medium was replaced with chemical reprogramming medium containing the small-molecule combinations. The small-molecule combinations-containing medium was changed every 4 days. On day 12, these cells were washed in PBS and digested with 0.25% Trypsin-EDTA (Invitrogen) at 37° C. for 3-5 min. After neutralization, the cell clumps were dissociated into single cells by thorough pipetting. The cells were harvested (300,000-1,000,000 cells per well of a 6-well plate) and replated at a density of 300,000-500,000 cells per well of a 6-well plate in the chemical reprogramming medium containing the small-molecule combinations. DZNep was added to the cell cultures on day 16 or day 20. On day 28-36, the small-molecule combinations including DZNep were removed. Meanwhile, the chemical reprogramming medium was replaced with 2i-medium. After another 8-12 days, 2i-competent, ESC-like and GFP-positive colonies were counted as primary CiPSC colonies. For CiPSC induction from wild-type cells without OG reporter, 2i-competent and ESC-like colonies were counted as primary CiPSC colonies. These CiPSC colonies were picked up for expansion and characterization. Alternatively, CiPSCs could be induced without replating on day 12.

[4] = tested on: concentration ratio of SAH to SAM; experiment: SAH and SAM quantification by HPLC
Method: as §1
Next, the role of DZNep, which was added in the late phase of chemical reprogramming was investigated. […] As an SAH hydrolase inhibitor, DZNep elevates the concentration ratio of SAH to S-adenosylmethionine (SAM) and may thereby repress the SAM-dependent cellular methylation process (FIG. 14A).

Oct4 promoter [5] = experiment: Chromatin immunoprecipitation, H3K9 methylation at the Oct4 promoter
Method: ChIP was performed using the EZ-Magna ChIP A/G Kit (Millipore) according to the manufacturer's protocol. Anti-H3K27me3 (Abcam, ab6002), anti-H3K9me2 (Millipore, 07-441), anti-H3K4me3 (Abcam, ab8580) and anti-H3K9ac (Abcam, ab4441) antibodies were used. Following immunoprecipitation, DNA was analyzed by real-time PCR.
(§2) The function of DZNep in inducing CiPSCs could not be replaced by down-regulating Ezh2 expression (FIGS. 14C-E). GFP+/ES-like colonies in the primary culture, unlike other colonies, express high mRNA level of Nanog and low level of Gata6, resembling ESCs and the established CiPSCs (data not shown). As master pluripotency genes, Oct4 and Sox2 may thereby activate other pluripotency-related genes and fulfill the chemical reprogramming process, along with the activation of Nanog and the silencing of Gata6, in the presence of 2i (Silva, et al., PLoS Biol. 6:e253 (2008), Theunissen, et al., Curr. Biol., 21:65-71 (2011). Boyer, et al., Cell, 122:947-956(2005); Chazaud, at al., Dev. Cell, 10:615-624 (2006)).

Oct4 promoter [6] = experiment: DNA methylation at the Oct4 promoter during chemical reprogramming
Source text: Genomic DNA was modified by bisulfite treatment and purified using the MethylCode™ Bisulfite Conversion Kit (Invitrogen) according to the manufacturer's protocol. The amplified fragments were cloned into the pEASY-blunt Vector (Transgene). Ten randomly picked clones from each sample were sequenced.
as §2

## C=C[C@@]1(C)CC(=O)[C@]2(O)[C@@]3(C)[C@@H](O)CCC(C)(C)[C@@H]3[C@H](O)[C@H](OC(C)=O)[C@@]2(C)O1 [Forskolin]
MEFs from OG mice [1]
  hit facilitating late reprogramming: identified in this screen
cAMP level in MEF
  cAMP level: significantly elevates
[2]
  activation of endogenous expression of Sall4 and Sox2: essential in activating
MEFs from OG mice [3]
  reprogramming in the absence of Oct4 (chemical substitute for Oct4): identified as chemical “substitutes” for Oct4

## CCCCC[C@H](O)/C=C/[C@H]1[C@H](O)CC(=O)[C@@H]1C/C=C\CCCC(=O)O [Prostaglandin E2]
MEFs from OG mice [1]
  hit facilitating late reprogramming: identified in this screen

## Nc1ncnc2c1ncn2[C@@H]1C=C(CO)[C@@H](O)[C@H]1O [NEPA, (−)Neplanocin A]
MEFs
  replacement of DZNep in CiPSC generation: useful in replacing DZNep in reprogramming

## C/C(=C\c1ccc(C(=O)O)cc1)c1ccc2c(c1)C(C)(C)CCC2(C)C [TTNPB, 4-[(E)-2-(5,6,7,8-Tetrahydro-5,5,8,8-tetramethyl-2-naphthalenyl)-1-propenyl]benzoic acid]
MEFs; booster added to chemical reprogramming in MEFs
  enhancement of chemical reprogramming efficiency, factor: ≤ 40
MEFs; with booster TTNPB
  chemical reprogramming frequency: up to 0.2%

## NC(=O)c1ccc(-c2nc(-c3ccc4c(c3)OCCO4)c(-c3ccccn3)[nH]2)cc1 [D4476]
MEFs from OG mice [3]
  reprogramming in the absence of Oct4 (chemical substitute for Oct4): identified as chemical “substitutes” for Oct4

## CCCC(=O)[O-].[Na+] [sodium butyrate, Sodiumbutyane]
MEFs from OG mice [1]
  hit facilitating late reprogramming: identified in this screen

## Nc1nccc2c1ncn2C1OC(CO)C(O)C1O (centres unmarked) [DZA, 3-Deamadenoxine]
MEFs
  replacement of DZNep in CiPSC generation: useful in replacing DZNep in reprogramming

## bFGF: recombinant basic fibroblast growth factor
MEFs; FIG. 5G
  requirement in inducing CiPSCs: necessary in inducing CiPSCs

## Nc1ncn([C@@H]2O[C@H](CO)[C@@H](O)[C@H]2O)c(=O)n1 [5-Azacytidine]
MEFs from OG mice [1]
  hit facilitating late reprogramming: identified in this screen

## Cc1cnc(-c2cnc(NCCNc3ccc(C#N)cn3)nc2-c2ccc(Cl)cc2Cl)[nH]1 [CHIR99021, 6-[[2-[[4-(2,4-Dichlorophenyl)-5-(5-methyl-1H-imidazol-2-yl)-2-pyrimidinyl]amino]ethyl]amino]-3-pyridinecarbonitrile]
[2]
  activation of endogenous expression of Sall4 and Sox2: essential in activating

## COc1ccc(C2CNC(=O)C2)cc1OC1CCCC1 (centres unmarked) [Rolipram]
MEFs from OG mice [1]
  hit facilitating late reprogramming: identified in this screen

## Nc1ncnc2c1ncn2C(C=O)OC(C=O)CO (centres unmarked) [ADOX, Adenosine periodate oxidized]
MEFs
  replacement of DZNep in CiPSC generation: useful in replacing DZNep in reprogramming

## Cc1cccc(-c2n[nH]cc2-c2ccc3ncccc3n2)n1 [compound 616452, 2-(3-(6-Methylpyridin-2-yl)-1H-pyrazol-4-yl)-1,5-naphthyridine]
[2]
  activation of endogenous expression of Sall4 and Sox2: essential in activating

## Nc1nccc2c1ncn2[C@@H]1C=C(CO)[C@@H](O)[C@H]1O [DZNep, 3-deazaneplanocin A]
MEFs from OG mice [1]
  hit facilitating late reprogramming: identified in this screen
[4]
  concentration ratio of SAH to S-adenosylmethionine (SAM): elevates
Oct4 promoter [5]
  H3K9 methylation at the Oct4 promoter: significantly decreased
Oct4 promoter [6]
  DNA methylation at the Oct4 promoter: significantly decreased
[2]; after addition of DZNep in chemical reprogramming
  Oct4 expression: enhanced significantly

## Cc1[nH]c2ccc(O)cc2c1CCN [2-Me-5HT, 2-Methyl-5-hydroxytryptamine hydrocholoride]
MEFs from OG mice [3]
  reprogramming in the absence of Oct4 (chemical substitute for Oct4): identified as chemical “substitutes” for Oct4
